{"source": "patent US20230416227A1", "about": "“PLASMA KALLIKREIN INHIBITORS” (Merck Sharp & Dohme LLC, priority 2020, published 2023)", "key": {"human factor XIa": {"target": "human factor XIa (Homo sapiens, UniProt P03951)", "sequence (P03951 388-625 limits assumed)": "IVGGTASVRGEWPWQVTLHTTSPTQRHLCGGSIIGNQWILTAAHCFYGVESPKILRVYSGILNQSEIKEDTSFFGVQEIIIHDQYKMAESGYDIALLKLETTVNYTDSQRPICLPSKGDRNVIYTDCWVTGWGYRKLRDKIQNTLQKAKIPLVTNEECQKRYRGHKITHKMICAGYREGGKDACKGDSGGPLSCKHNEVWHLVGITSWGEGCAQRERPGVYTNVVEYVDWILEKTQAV", "sequence (P03951 19-387 partner limits assumed)": "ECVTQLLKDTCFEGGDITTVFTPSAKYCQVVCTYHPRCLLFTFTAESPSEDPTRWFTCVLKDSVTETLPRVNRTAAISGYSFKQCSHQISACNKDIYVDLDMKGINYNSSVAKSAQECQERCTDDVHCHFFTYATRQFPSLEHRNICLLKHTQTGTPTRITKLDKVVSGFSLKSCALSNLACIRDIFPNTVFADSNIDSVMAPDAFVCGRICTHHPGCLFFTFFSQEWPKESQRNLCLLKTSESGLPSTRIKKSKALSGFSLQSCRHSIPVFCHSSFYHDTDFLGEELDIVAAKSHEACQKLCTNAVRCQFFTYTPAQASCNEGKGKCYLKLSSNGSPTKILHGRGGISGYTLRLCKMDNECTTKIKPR", "assay": "Factor XIa Assay", "assay_type": "biochemical", "conditions": "human factor XIa 0.04 nM, substrate GPR-AFC, 30 min pre-incubation at 25° C., pH 7.4; read-out: FXIa IC50"}, "Human plasma kallikrein": {"target": "T1, Human plasma kallikrein (Homo sapiens, UniProt P03952)", "T1 construct": "yields a heavy chain (371 amino acids) and a light chain (248 amino acids); purchased Enzyme Research Laboratories", "T1 sequence (P03952 391-638 limits assumed)": "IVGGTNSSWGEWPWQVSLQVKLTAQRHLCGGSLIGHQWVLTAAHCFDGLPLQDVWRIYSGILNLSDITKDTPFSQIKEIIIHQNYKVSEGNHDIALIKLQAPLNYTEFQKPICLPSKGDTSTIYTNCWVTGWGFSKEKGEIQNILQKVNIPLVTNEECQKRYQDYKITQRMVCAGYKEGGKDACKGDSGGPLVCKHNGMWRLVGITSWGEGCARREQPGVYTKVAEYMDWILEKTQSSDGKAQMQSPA", "T1 sequence (P03952 20-390 partner limits assumed)": "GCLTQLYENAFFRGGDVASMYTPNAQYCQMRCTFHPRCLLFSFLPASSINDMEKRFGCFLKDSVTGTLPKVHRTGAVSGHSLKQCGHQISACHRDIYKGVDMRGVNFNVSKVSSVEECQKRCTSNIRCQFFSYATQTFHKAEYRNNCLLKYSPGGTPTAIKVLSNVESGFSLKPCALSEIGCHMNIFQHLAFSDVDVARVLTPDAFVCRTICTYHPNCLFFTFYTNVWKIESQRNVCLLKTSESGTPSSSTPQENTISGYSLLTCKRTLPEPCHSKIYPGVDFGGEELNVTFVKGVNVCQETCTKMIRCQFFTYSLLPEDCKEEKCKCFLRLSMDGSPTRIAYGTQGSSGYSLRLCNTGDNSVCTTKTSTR", "assay": "Plasma Kallikrein Assay", "assay_type": "biochemical", "conditions": "purified Human plasma kallikrein 0.5 nM, substrate Acetyl-K-P-R-AFC, pH 7.4"}}, "data": [{"smiles": "CC1(O)CCN(C[C@@H]2CCCN2c2ncc(Cn3cc(NC(=O)c4cncc(-c5c(C(F)F)ccc(Cl)c5F)n4)cn3)cn2)C1", "note": "(stereo partly drawn) [Example 144, 6-(3-Chloro-6-(difluoromethyl)-2-fluorophenyl)-N-(1-((2-((2S)-2-((3-hydroxy-3-methylpyrrolidin-1-yl)methyl)pyrrolidin-1-yl)pyrimidin-5-yl)methyl)-1H-pyrazol-4-yl)pyrazine-2-carboxamide]", "values": [{"measurement": "IC50", "setting": "human factor XIa", "value": 2340, "unit": "nM"}, {"measurement": "IC50", "setting": "Human plasma kallikrein", "value": 0.4, "unit": "nM"}]}, {"smiles": "C[C@H](c1cnc(N2CCC2)nc1)n1cc(NC(=O)c2cncc(-c3c(C(F)F)ccc(Cl)c3F)n2)cn1", "note": "(single isomer, unassigned) [Example 4]", "values": [{"measurement": "IC50", "setting": "human factor XIa", "value": 1320, "unit": "nM"}, {"measurement": "IC50", "setting": "Human plasma kallikrein", "value": 23.1, "unit": "nM"}]}, {"smiles": "Cc1nc(Cn2cc(NC(=O)c3cncc(-c4c(C(F)F)ccc(Cl)c4F)n3)cn2)cnc1N1CCC1", "note": "[Example 10, N-(1-((5-(Azetidin-1-yl)-6-methylpyrazin-2-yl)methyl)-1H-pyrazol-4-yl)-6-(3-chloro-6-(difluoromethyl)-2-fluorophenyl)pyrazine-2-carboxamide]", "values": [{"measurement": "IC50", "setting": "human factor XIa", "value": 647, "unit": "nM"}, {"measurement": "IC50", "setting": "Human plasma kallikrein", "value": 5.2, "unit": "nM"}]}, {"smiles": "CC(c1cnc(N2CC[C@H]2[C@@H](C)N2C[C@@H](O)[C@H](O)C2)nc1)n1cc(NC(=O)c2cncc(-c3c(C(F)F)ccc(Cl)c3F)n2)cn1", "note": "(stereo partly drawn) [Example 188, 6-(3-Chloro-6-(difluoromethyl)-2-fluorophenyl)-N-(1-(1-(2-((S)-2-((R)-1-((3R,4R)-3,4-dihydroxypyrrolidin-1-yl)ethyl)azetidin-1-yl)pyrimidin-5-yl)ethyl)-1H-pyrazol-4-yl)pyrazine-2-carboxamide]", "values": [{"measurement": "IC50", "setting": "human factor XIa", "value": 3330, "unit": "nM"}, {"measurement": "IC50", "setting": "Human plasma kallikrein", "value": 3.2, "unit": "nM"}]}, {"smiles": "CC(c1cnc(N2CC[C@H]2CN2CC(O)(C(C)C)C2)nc1)n1cc(NC(=O)c2cncc(-c3c(C(F)F)ccc(Cl)c3F)n2)cn1", "note": "(stereo partly drawn) [Example 173, 6-(3-Chloro-6-(difluoromethyl)-2-fluorophenyl)-N-(1-(1-(2-((S)-2-((3-hydroxy-3-isopropylazetidin-1-yl)methyl)azetidin-1-yl)pyrimidin-5-yl)ethyl)-1H-pyrazol-4-yl)pyrazine-2-carboxamide]", "values": [{"measurement": "IC50", "setting": "human factor XIa", "value": 8920, "unit": "nM"}, {"measurement": "IC50", "setting": "Human plasma kallikrein", "value": 1, "unit": "nM"}]}, {"smiles": "CC(c1cnc(N2CC3CC3C2)nc1)n1cc(NC(=O)c2cncc(-c3c(C(F)F)ccc(Cl)c3F)n2)cn1", "note": "(single isomer, unassigned) [Example 31, N-(1-((1S or 1R)-1-(2-(3-azabicyclo[3.1.0]hexan-3-yl)pyrimidin-5-yl)ethyl)-1H-pyrazol-4-yl)-6-(3-chloro-6-(difluoromethyl)-2-fluorophenyl)pyrazine-2-carboxamide]", "values": [{"measurement": "IC50", "setting": "human factor XIa", "value": 2720, "unit": "nM"}, {"measurement": "IC50", "setting": "Human plasma kallikrein", "value": 27, "unit": "nM"}]}, {"smiles": "CC(c1cnc(N2CCC2)nc1)n1cc(NC(=O)c2cncc(-c3c(OC(F)F)ccc(Cl)c3F)n2)cn1", "note": "(single isomer, unassigned) [Example 57, (S or R)-N-(1-(1-(2-(Azetidin-1-yl)pyrimidin-5-yl)ethyl)-1H-pyrazol-4-yl)-6-(3-chloro-6-(difluoromethoxy)-2-fluorophenyl)pyrazine-2-carboxamide]", "values": [{"measurement": "IC50", "setting": "human factor XIa", "value": 1170, "unit": "nM"}, {"measurement": "IC50", "setting": "Human plasma kallikrein", "value": 6.8, "unit": "nM"}]}, {"smiles": "C[C@@H](O)CNCC1CCCN1c1ncc(Cn2cc(NC(=O)c3cncc(-c4c(C(F)F)ccc(Cl)c4F)n3)cn2)cn1", "note": "(stereo partly drawn) [Example 154, 6-(3-Chloro-6-(difluoromethyl)-2-fluorophenyl)-N-(1-((2-(2-((((R)-2-hydroxypropyl)amino)methyl)pyrrolidin-1-yl)pyrimidin-5-yl)methyl)-1H-pyrazol-4-yl)pyrazine-2-carboxamide]", "values": [{"measurement": "IC50", "setting": "human factor XIa", "value": 4130, "unit": "nM"}, {"measurement": "IC50", "setting": "Human plasma kallikrein", "value": 1.2, "unit": "nM"}]}, {"smiles": "Cc1ncc(-c2c(C(F)F)ccc(Cl)c2F)nc1C(=O)Nc1cnn(C(CO)c2cnc(N3CCC3)nc2)c1", "note": "(single isomer, unassigned) [Example 47, (R or S)-N-(1-(1-(2-(Azetidin-1-yl)pyrimidin-5-yl)-2-hydroxyethyl)-1H-pyrazol-4-yl)-6-(3-chloro-6-(difluoromethyl)-2-fluorophenyl)-3-methylpyrazine-2-carboxamide]", "values": [{"measurement": "IC50", "setting": "human factor XIa", "value": 326, "unit": "nM"}, {"measurement": "IC50", "setting": "Human plasma kallikrein", "value": 10.6, "unit": "nM"}]}]}
